Assay results reported in PubChem BioAssay AID1996.
≈ marks a conversion by molar mass, not a printed value.

details: buffer; pH 7.4; 200.0 µM

Row | SMILES | solubility kinetic [µg/mL]
1 | Cc1c(C(=O)NC(C)C2CC3CCC2C3)cccc1[N+](=O)[O-] (centres undefined) | 34.3 (≈ 113 µM)
2 | O=C(COC(=O)c1c[nH]c2ccccc12)Nc1ccccc1 | 1.9 (≈ 6.46 µM)
3 | Cc1cc(NC(=O)/C=C\C(=O)O)c([N+](=O)[O-])cc1C | 39.4 (≈ 149 µM)
4 | CCOC(=O)c1sc(NC(=O)OC)c(C(=O)OC)c1C | < 0.6
5 | Brc1c(-c2ccccc2)nc2n1Cc1ccccc1-2 | 0.6 (≈ 1.93 µM)
6 | CC(=O)Nc1ccc2c(c1)ncn2-c1ccc(C)cc1 | 38.8 (≈ 146 µM)
7 | O=C(CN1CCN(c2ccccn2)CC1)Nc1cc(F)ccc1F | > 49.9
8 | N#Cc1ccccc1NC(=O)COc1ccccc1C(=O)Nc1ccccc1 | 6.6 (≈ 17.8 µM)
9 | COc1ccc(NC(=O)/C=C/c2cc(OC)c(OC)c(OC)c2)cn1 | 0.5 (≈ 1.45 µM)
10 | COc1ccc(/C=C2\N=C(C)OC2=O)cc1[N+](=O)[O-] | 25.7 (≈ 98 µM)
11 | Cc1csc(NC(=O)CSc2nccn2C)n1 | > 40.3
12 | O=S(=O)(c1ccc2c(c1)CCN2)N1CCCC1 | 36.1 (≈ 143 µM)
13 | Cc1cc(Cl)nc(Cl)c1C(=O)NCCc1ccccc1 | > 46.4
14 | C=CCOc1ccccc1CN1CCCN(C)CC1 | 27.8 (≈ 107 µM)
15 | CC(C)(C)c1ccc(C(=O)n2cnc3ccccc32)cc1 | 34.1 (≈ 123 µM)
16 | O=C(CN1C(=O)NC2(CCOc3ccccc32)C1=O)NCCc1ccc(F)cc1 (centres undefined) | > 59.6
17 | CCOC(=O)c1sc(=NC(=O)c2ccc(C)cc2)n(C)c1C | < 0.3
18 | O=C(CNC(=O)c1ccccc1Cl)OC1CCOC1=O (centres undefined) | 42.1 (≈ 141 µM)
19 | Cl.c1cncc(CNC2CCCCC2)c1 | > 34
20 | CCOC(=O)C1=Nc2ccccc2/C1=C\c1c(O)n(C)c(=O)n(C)c1=O | 46.5 (≈ 131 µM)
21 | NS(=O)(=O)c1ccc(CCNC(=O)CN2CCN(S(=O)(=O)c3ccccc3F)CC2)cc1 | > 72.7
22 | CCNc1ccc([N+](=O)[O-])cc1 | 19.9 (≈ 120 µM)
23 | COc1ccc(Cl)cc1NC(=S)N1CCCCCC1 | 42.7 (≈ 143 µM)
24 | CC(O)Cn1c(N2CCCC2)nc2c1c(=O)n(C)c(=O)n2C (centres undefined) | > 46.1
25 | Cc1cccc(C)c1NC(=S)NCc1ccccc1 | > 40.6

Row | SMILES | solubility kinetic [µg/mL]
26 | Cc1ccnc(NC(=O)c2cc3ccccc3o2)c1 | 12.9 (≈ 51.1 µM)
27 | CC(C)(C)CC(=O)NC(=S)NCc1ccco1 | 9.3 (≈ 36.6 µM)
28 | Cc1ccc(-c2cc(-c3ccccc3)nc(N)c2C#N)o1 | < 0.2
29 | Cc1ccc(NC(=O)Nc2cccc(F)c2)nc1 | 1.3 (≈ 5.3 µM)
30 | O=C(COC(=O)c1cc(Cl)nc(Cl)c1)NC1CCCCCC1 | 5.9 (≈ 17.1 µM)
31 | O=C(Nc1ccc2c(c1)OCCO2)c1ccc(Cl)c(Cl)c1 | < 0.7
32 | CC(OC(=O)CSc1ccc(F)cc1)C(=O)NC1(C#N)CCCCC1 (centres undefined) | 42.2 (≈ 116 µM)
33 | Cc1csc2c(=O)sc(NC(=O)c3ccco3)nc12 | 4.5 (≈ 15.4 µM)
34 | CNc1nc(-c2cccs2)cc(C(F)(F)F)c1C#N | < 0.2
35 | Cc1csc(SCC(=O)NC2CCS(=O)(=O)C2)n1 (centres undefined) | > 46
36 | CCOc1ccc(N(C)S(=O)(=O)c2cnc[nH]2)cc1 | > 42.2
37 | Cc1cccc(N(C)S(=O)(=O)c2c(C)noc2C)c1 | 37.1 (≈ 132 µM)
38 | O=C1NN(c2ccc(F)cc2)C(=O)/C1=C/c1cccs1 | > 43.2
39 | CCCC(=O)NCc1ccncc1 | > 26.7
40 | CNC(=O)c1c(NC(=O)C2=COCCO2)sc(C)c1C | > 44.5
41 | CCOc1ccc2oc(C(=O)N3CCCN(C)CC3)c(C)c2c1.Cl | > 52.9
42 | O=C(c1cc(-c2ccccc2)nc2ccccc12)N1CCCC1 | 42 (≈ 139 µM)
43 | Cc1nc2ccc(Cl)cc2c(=O)n1-c1ccc([N+](=O)[O-])cc1 | 3.7 (≈ 11.7 µM)
44 | Cc1ccc(SCC(=O)NCc2ccccc2C)cc1 | 35.7 (≈ 125 µM)
45 | COc1ccccc1NC(=O)Nc1ccc(N2CCOCC2)cc1 | 45.8 (≈ 140 µM)
46 | CCC(CC)NC(=O)Nc1ccccc1C(F)(F)F | 10.8 (≈ 39.4 µM)
47 | NC(=O)c1cc(S(=O)(=O)NCc2ccccc2)cs1 | > 44.5
48 | CC(C)N1C(=O)c2ccccc2N(Cc2ccccc2)S1(=O)=O | 5.7 (≈ 17.3 µM)
49 | NS(=O)(=O)c1ccc(CCNC(=O)CNC(=O)Cc2ccccc2)cc1 | > 56.3
